The nature of assay [1]: Survivors of CDF1 mice on day 4 after 1st injection of compound at 10 mg/kg in six mice; 6/6. It counts as functional, Mus musculus.
Assay [2] in a line: Survivors of CDF1 mice on day 4 after 1st injection of compound at 20 mg/kg in six mice; 6/6. It is filed as functional, Mus musculus.
Assay [3] can be described thus: Survivors of CDF1 mice on day 4 after 1st injection of compound at 5 mg/kg in six mice; 6/6. It is filed as functional, Mus musculus.
For assay [4], the system named is L1210. The assay is described as follows: Concentration required to inhibit the growth of L1210 leukemia cells. It is filed as functional. To be noted: Mus musculus, read-out: ED50 (the source's name).
Assay [5] is described as follows: (§1) Survivors of CDF1 mice on day 4 after 1st injection of compound 80 at mg/kg in six mice; 6/6. It is filed as functional, Mus musculus.
In assay [6] the test system is P388. The assay is described as follows: Percent ratio of the medium survival time for P388 murine leukemia in CDF1 mice at 10 mg/kg. It is filed as functional, Mus musculus.
The test system of assay [7] is P388. Kind of assay: Percent ratio of the medium survival time for P388 murine leukemia in CDF1 mice at 20 mg/kg. It is filed as functional, Mus musculus.
Assay [8] relates to P388. Kind of assay: Percent ratio of the medium survival time for P388 murine leukemia in CDF1 mice at 40 mg/kg. It is filed as functional, Mus musculus.
The subject of assay [9] is P388. Kind of assay: Percent ratio of the medium survival time for P388 murine leukemia in CDF1 mice at 5 mg/kg. It counts as functional, Mus musculus.
The subject of assay [10] is P388. Kind of assay: Percent ratio of the medium survival time for P388 murine leukemia in CDF1 mice at 80 mg/kg. It is filed as functional, Mus musculus.
Assay [11] can be described thus: (§2) Survivors of CDF1 mice on day 4 after 1st injection of compound at 40 mg/kg in six mice; 6/6. It is filed as functional, Mus musculus.
The nature of assay [12]: Survivors of CDF1 mice on day 4 after 1st injection of compound 40 at mg/kg in seven mice; 5/7. It is filed as functional, Mus musculus.
A short description of assay [13]: Survivors of CDF1 mice on day 4 after 1st injection of compound at 1.25 mg/kg in seven mice; 7/7. It counts as functional, Mus musculus.
Assay [14] is described as follows: Survivors of CDF1 mice on day 4 after 1st injection of compound at 10 mg/kg in seven mice; 7/7. It counts as functional, Mus musculus.
The nature of assay [15]: Survivors of CDF1 mice on day 4 after 1st injection of compound at 2.5 mg/kg in seven mice; 7/7. It is filed as functional, Mus musculus.
The nature of assay [16]: Survivors of CDF1 mice on day 4 after 1st injection of compound at 20 mg/kg in seven mice; 7/7. It is filed as functional, Mus musculus.
Assay [17] in a line: Survivors of CDF1 mice on day 4 after 1st injection of compound at 5 mg/kg in seven mice; 7/7. It is filed as functional, Mus musculus.
In assay [18] the test system is P388. The assay is described as follows: Percent ratio of the medium survival time for P388 murine leukemia in CDF1 mice at 1.25 mg/kg. It counts as functional, Mus musculus.
The subject of assay [19] is P388. Kind of assay: Percent ratio of the medium survival time for P388 murine leukemia in CDF1 mice at 2.5 mg/kg. It counts as functional, Mus musculus.
Assay [20] relates to P388. Described as §1. It is filed as functional, Mus musculus.
The subject of assay [21] is P388. The assay is described as §2. It is filed as functional, Mus musculus.
Assay [22] is described as follows: Survivors of CDF1 mice on day 4 after 1st injection of compound 25 at mg/kg in six mice; 6/6. It is filed as functional, Mus musculus.
Assay [23] can be described thus: Survivors of CDF1 mice on day 4 after 1st injection of compound at 12.5 mg/kg in six mice; 6/6. It is filed as functional, Mus musculus.
Assay [24] can be described thus: Survivors of CDF1 mice on day 4 after 1st injection of compound at 3.12 mg/kg in six mice; 6/6. It counts as functional, Mus musculus.
Assay [25] is described as follows: Survivors of CDF1 mice on day 4 after 1st injection of compound at 6.25 mg/kg in six mice; 6/6. It is filed as functional, Mus musculus.
The subject of assay [26] is P388. The assay is described as follows: Percent ratio of the medium survival time for P388 murine leukemia in CDF1 mice at 12.5 mg/kg. It counts as functional, Mus musculus.
Assay [27] deals with P388. The assay is described as follows: Percent ratio of the medium survival time for P388 murine leukemia in CDF1 mice at 25 mg/kg. It is filed as functional, Mus musculus.
Assay [28] concerns P388. The assay is described as follows: Percent ratio of the medium survival time for P388 murine leukemia in CDF1 mice at 3.12 mg/kg. It counts as functional, Mus musculus.
Assay [29] relates to P388. Kind of assay: Percent ratio of the medium survival time for P388 murine leukemia in CDF1 mice at 6.25 mg/kg. It counts as functional, Mus musculus.
Assay [30] is described as follows: Survivors of CDF1 mice on day 4 after 1st injection of compound at 0.75 mg/kg in six mice; 6/6. It counts as functional, Mus musculus.
Assay [31] is described as follows: Survivors of CDF1 mice on day 4 after 1st injection of compound at 1.5 mg/kg in six mice; 6/6. It is filed as functional, Mus musculus.
Assay [32] is described as follows: Survivors of CDF1 mice on day 4 after 1st injection of compound at 3 mg/kg in six mice; 6/6. It counts as functional, Mus musculus.
A short description of assay [33]: Survivors of CDF1 mice on day 4 after 1st injection of compound at 6 mg/kg in six mice; 6/6. It counts as functional, Mus musculus.
The nature of assay [34]: Survivors of CDF1 mice on day 4 after 1st injection of compound 12 at mg/kg in six mice; 6/6. It counts as functional, Mus musculus.
The subject of assay [35] is P388. The assay is described as follows: Percent ratio of the medium survival time for P388 murine leukemia in CDF1 mice at 1.5 mg/kg. It is filed as functional, Mus musculus.
Assay [36] relates to P388. The assay is described as follows: Percent ratio of the medium survival time for P388 murine leukemia in CDF1 mice at 0.75 mg/kg. It is filed as functional, Mus musculus.
Assay [37] has as its system P388. The assay is described as follows: Percent ratio of the medium survival time for P388 murine leukemia in CDF1 mice at 12 mg/kg. It is filed as functional, Mus musculus.
Assay [38] has as its system P388. Kind of assay: Percent ratio of the medium survival time for P388 murine leukemia in CDF1 mice at 3 mg/kg. It is filed as functional, Mus musculus.
In assay [39] the test system is P388. Kind of assay: Percent ratio of the medium survival time for P388 murine leukemia in CDF1 mice at 6 mg/kg. It is filed as functional, Mus musculus.

In general, T/C refers to the result in the treated group divided by that in the control group, in per cent.

Values after ≈ are worked out from the molar mass of the structure shown.

In the case of `CN(C)CCNc1ccc(NCCNCCO)c2c1C(=O)c1ccccc1C2=O`, the Survival in [1], in [2], in [3], in assay [5] and in [11] was 6 each time. In addition, in assay [4], the EC50 was 0.64 µg/mL (≈ 1.61 µM). Also, the T/C in assay [6] is 151%; in assay [7] it was 173%; in [8], 192%; in [9] it was 144%; in [10] it was 192%.
Turning to `O=C1c2ccccc2C(=O)c2c(NCCN3CCOCC3)ccc(NCCNCCO)c21`, the Survival in assay [1], in assay [2], in [3], in [5] and in assay [11] was 6 each time. Also, in [4], the EC50 amounted to 2.36 µg/mL (≈ 5.38 µM). The T/C in [6] came out at 132%.
Turning to `NCCNc1ccc(NCCNCCO)c2c1C(=O)c1ccccc1C2=O`, the Survival in assay [12] was 5; in assay [13] it was 7; in assay [14], 7; in assay [15], 7; in assay [16], 7; in assay [17] it was 7. Moreover, the EC50 in assay [4] was 2.38 µg/mL (≈ 6.46 µM). Moreover, the T/C in assay [18] is 170%; in assay [6], 300%; in assay [19], 180%; in [7] it was 300%; in assay [8], 80%; in assay [9] it was 200%.
`O=C1c2ccccc2C(=O)c2c(NCCNCCO)ccc(NCCO)c21`: the Survival in assay [1], in assay [2], in [3], in assay [5] and in assay [11] was 6 in each case. Further, in [4], the EC50 amounted to 12.3 µg/mL (≈ 33.3 µM). Also, the T/C came out at 125% in [6]; 142% in assay [7]; 127% in [8]; 115% in assay [9]; 144% in assay [10].
`CC(C)(CO)NCCNc1ccc(NCCNCCO)c2c1C(=O)c1ccccc1C2=O`: the Survival in [1], in [2], in [3], in assay [20] and in assay [21] was 6 each time. The EC50 in [4] was found to be 1.48 µg/mL (≈ 3.36 µM). Further, in assay [6], the T/C was 151%.
As to `O=C1c2ccccc2C(=O)c2c(NCCNCCO)ccc(NCCNCCO)c21` [AMETANTRONE], the Survival in [22], in [23], in assay [24] and in [25] was 6 each time. Also, the EC50 in assay [4] stood at 2.54 µg/mL (≈ 6.16 µM). Also, the T/C amounted to 300% in [26], 200% in assay [27], 200% in assay [28] and 240% in assay [29].
For the compound `O=C1c2c(O)ccc(O)c2C(=O)c2c(NCCNCCO)ccc(NCCNCCO)c21` [MITOXANTRONE], the Survival in assay [30], in [31], in assay [32], in assay [33] and in assay [34] was 6 throughout. The T/C came to 201% in [35]; 209% in assay [36]; 118% in assay [37]; 288% in [38]; 192% in assay [39].

The record behind these values is ChEMBL document CHEMBL1124546, “Synthesis of unsymmetrically substituted 1,4-bis[(aminoalkyl)amino]anthracene-9,10-diones as potential antileukemic agents” (1989).
